This is an account of results in article PMC12329707, “Ancestral Sequence Reconstruction of the Ethylene-Forming Enzyme” (Biochemistry, 2025).

In one experiment the target is T1, Din11 (Arabidopsis thaliana, UniProt Q8H113).
T1 construct: gene 2ODDC23.2; synthetic codon-optimised gene in pET28a, E. coli; N-terminal His6 tag, removed by TEV; Fe(II) added
T1 sequence (Q8H113 1-357): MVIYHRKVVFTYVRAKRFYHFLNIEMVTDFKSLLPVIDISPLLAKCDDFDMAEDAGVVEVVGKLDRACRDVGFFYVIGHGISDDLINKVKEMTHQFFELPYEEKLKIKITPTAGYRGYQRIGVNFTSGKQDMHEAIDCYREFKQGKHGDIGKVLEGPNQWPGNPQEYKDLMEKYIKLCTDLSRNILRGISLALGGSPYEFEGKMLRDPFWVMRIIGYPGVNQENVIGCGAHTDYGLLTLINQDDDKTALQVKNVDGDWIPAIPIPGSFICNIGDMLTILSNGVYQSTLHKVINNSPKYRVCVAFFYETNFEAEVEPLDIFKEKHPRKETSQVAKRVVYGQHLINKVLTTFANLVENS
Kind of experiment: P5C formation, colorimetric assay. Type of experiment: biochemical. Conditions: 2OG 6.67 mM, L-Arg 6.67 mM, Fe(II) 0.4 mM, ascorbate 0.8 mM, HEPES pH 7.5, room temperature.

For another experiment, the target named is T2, PaIPNS (Pseudomonas aeruginosa, UniProt Q9HWJ0).
T2 construct: gene PA4191; synthetic codon-optimised gene in pET28a, E. coli; N-terminal His6 tag removed by TEV; EDTA-treated apoprotein reconstituted with Fe(II)
T2 sequence (Q9HWJ0 1-334): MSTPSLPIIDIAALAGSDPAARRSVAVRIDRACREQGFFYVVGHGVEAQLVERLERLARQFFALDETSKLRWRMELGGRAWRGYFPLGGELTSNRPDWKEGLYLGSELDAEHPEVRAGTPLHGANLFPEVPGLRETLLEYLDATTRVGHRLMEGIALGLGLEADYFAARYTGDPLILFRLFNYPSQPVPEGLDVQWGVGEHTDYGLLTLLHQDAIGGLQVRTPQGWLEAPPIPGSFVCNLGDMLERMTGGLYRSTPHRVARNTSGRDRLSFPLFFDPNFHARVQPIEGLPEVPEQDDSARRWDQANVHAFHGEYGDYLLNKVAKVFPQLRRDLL
The experiment is described as follows: anaerobic UV-visible difference spectroscopy (MLCT). Type of experiment: binding. Conditions: Fe(II) 1 mM, dithionite 2 mM, 25 mM HEPES pH 7.5.

Experiment [1] concerns T3, Anc357 (synthetic construct).
T3 construct: pET28a, E. coli; N-terminal His6 tag removed by TEV; 37,413 Da expected after cleavage; monomer
The description is as above. Type of experiment: binding. The note with it: Fe(II).

With `N=C(N)NCCC[C@H](N)C(=O)O` [L-Arg], the “P5C formation, colorimetric assay” value at Din11 is “this enzyme hydroxylated L-Arg to produce P5C”.

Regarding `O=C(O)CCC(=O)C(=O)O` [2OG], the “anaerobic UV-visible difference spectroscopy (MLCT)” value on PaIPNS is on record as “The PaIPNS spectra clearly demonstrated that PaIPNS binds 2OG”; in experiment [1], “consistent with 2OG binding (Figure S6)”.
